Measurements: patent publication US10829520B2, “Beta-hairpin peptidomimetics” (POLYPHOR AG, priority 2015, dated 2020)
Where a SMILES comes first, the peptide text is derived from it. Bridges are numbered along the chain shown (N, C = ends). Roman numbers before positions name the chains, in order. [ ]: non-standard residue; d: D form. Tle = CC(C)(C)[C@H](N)C(=O)O; dDab = NCC[C@@H](N)C(=O)O; Nle = CCCC[C@H](N)C(=O)O; Orn = NCCC[C@H](N)C(=O)O; Dab = NCC[C@H](N)C(=O)O; Sar = CNCC(=O)O

Experiments:
Type in all cases: cell-based
[1] = system: human red blood cells (hRBC); test: Hemolysis of human red blood cells; settings: red cells of human, 1 h
Method in brief: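 Washed fresh human erythrocytes (20% v/v, ~0.9×10^9 cells/mL final) were incubated with peptides at 100 μg/mL for 1 h at 37 °C with shaking. Supernatant OD540 measured; hemolysis expressed as % of 2.5% Triton X-100 lysis, with PBS/0.001% acetic acid as 0%.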

[2] = system: Klebsiella pneumoniae 968733; settings: 968733
Escherichia coli 926415 = settings: 926415
[3] = system: Klebsiella pneumoniae SSI #3010; settings: SSI #3010
Method in brief: (§1)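 CLSI broth microdilution in cation-adjusted Mueller-Hinton II broth with 0.002% Polysorbate 80, inoculum appr. 10^6 CFU/mL, peptides in serial two-fold dilutions. MIC (μg/mL) is the lowest concentration with no visible growth after 18-20 hours at 35° C.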

[4] = system: Escherichia coli ATCC 25922; settings: ATCC 25922
Method in brief: as §1

[5] = system: Acinetobacter baumannii 872842; settings: 872842
[6] = system: Pseudomonas aeruginosa ATCC 27853; settings: ATCC 27853
Method in brief: as §1

[7] = system: Acinetobacter baumannii DSM 30008; settings: DSM 30008
Method in brief: as §1

CCCC[C@@H]1NC(=O)[C@@H]2CCCN2C(=O)[C@H]2CCCN2C(=O)[C@H](CO)NC(=O)[C@H](C)NC(=O)[C@H](C(C)(C)C)NC(=O)[C@H](CCN)NC(=O)[C@H](Cc2c[nH]c3ccccc23)NC(=O)[C@H](NC(C)=O)CSSC[C@@H](C(=O)N[C@@H](CCN)C(=O)N[C@H](C(=O)N[C@@H](CCN)C(=O)N[C@H]2CCNC(=O)[C@H]([C@@H](C)O)NC(=O)[C@H](CCN)NC(=O)[C@H](CCN)NC(=O)[C@H](CC(C)C)NC(=O)[C@@H](Cc3ccccc3)NC(=O)[C@H](CCN)NC2=O)[C@@H](C)O)NC(=O)[C@H](CCCN)NC(=O)[C@H](CCN)NC(=O)[C@H](Cc2ccc(O)cc2)NC(=O)[C@H](CO)NC1=O [Ex. 63] (Ac-[dC]W[Dab][Tle]AS[dP]P[Nle]SY[Dab][Orn]C[Dab]T[Dab][Dab][Dab][dF]L[Dab][Dab]T; disulfide 1-14; lactam 18-C)
Hemolysis at 100 μg/mL ([1]; 100 μg/mL): <1% | Klebsiella pneumoniae 968733 MIC [2]: 8 mg/L | Escherichia coli 926415 MIC (Escherichia coli 926415): 3 mg/L | Klebsiella pneumoniae SSI #3010 MIC [3]: 2 mg/L | Escherichia coli ATCC 25922 MIC [4]: 0.5 mg/L | Acinetobacter baumannii 872842 MIC [5]: 2 mg/L | Pseudomonas aeruginosa ATCC 27853 MIC [6]: 0.5 mg/L | Acinetobacter baumannii DSM 30008 MIC [7]: 2 mg/L

CC(C)C[C@@H]1NC(=O)[C@@H](CC(C)C)NC(=O)[C@H](CCN)NC(=O)[C@@H](NC(=O)[C@H](CCN)NC(=O)[C@@H](NC(=O)[C@H](CCN)NC(=O)CN(C)C(=O)[C@@H]2CSSC[C@H](NC(=O)[C@@H](N)Cc3c[nH]c4ccccc34)C(=O)N[C@@H](C(C)C)C(=O)N[C@@H](CCCNC(=N)N)C(=O)N[C@@H](CCCNC(=N)N)C(=O)N3CCC[C@@H]3C(=O)N3CCC[C@H]3C(=O)N[C@@H](CC(C)C)C(=O)N[C@@H](CO)C(=O)N[C@@H](Cc3ccc(O)cc3)C(=O)N2)[C@@H](C)O)CCNC(=O)[C@H]([C@@H](C)O)NC(=O)[C@H](CCN)NC(=O)[C@H](CCN)NC1=O [Ex. 152] (H-WCVRR[dP]PLSYC[Sar][Dab]T[Dab][Dab][Dab][dL]L[Dab][Dab]T; disulfide 2-11; lactam 16-C)
Hemolysis at 100 μg/mL ([1]; 100 μg/mL): 1% | Klebsiella pneumoniae 968733 MIC [2]: 8 mg/L | Escherichia coli 926415 MIC (Escherichia coli 926415): 2 mg/L | Klebsiella pneumoniae SSI #3010 MIC [3]: 0.25 mg/L | Escherichia coli ATCC 25922 MIC [4]: 0.25 mg/L | Acinetobacter baumannii 872842 MIC [5]: 0.125 mg/L | Pseudomonas aeruginosa ATCC 27853 MIC [6]: 2 mg/L | Acinetobacter baumannii DSM 30008 MIC [7]: 0.25 mg/L

CC(C)C[C@@H]1NC(=O)[C@@H](CC(C)C)NC(=O)[C@H](CCN)NC(=O)[C@@H](NC(=O)[C@H](CCN)NC(=O)CN(C)C(=O)C[C@@H]2NC(=O)[C@H](CCN)NC(=O)[C@H](Cc3ccc(O)cc3)NC(=O)[C@H](CO)NC(=O)[C@H](CC(C)C)NC(=O)[C@@H]3CCCN3C(=O)[C@H]3CCCN3C(=O)[C@H](CO)NC(=O)[C@H](C)NC(=O)[C@H](C(C)C)NC(=O)[C@H](CCN)NC(=O)[C@H](Cc3c[nH]c4ccccc34)NC(=O)[C@H](CCN)NC(=O)[C@@H](CCN)NC2=O)CCNC(=O)[C@H]([C@@H](C)O)NC(=O)[C@H](CCN)NC(=O)[C@H](CCN)NC1=O [Ex. 76] (I: cyclo(W[Dab]VAS[dP]PLSY[Dab]D[dDab][Dab]) / II: [Sar][Dab][Dab][Dab][dL]L[Dab][Dab]T; amide I:12-II:N; lactam II:3-II:C)
Hemolysis at 100 μg/mL [1]; 100: 1% | Klebsiella pneumoniae 968733 MIC [2]: 2 mg/L | Escherichia coli 926415 MIC (Escherichia coli 926415): 0.5 mg/L | Klebsiella pneumoniae SSI #3010 MIC [3]: 2 mg/L | Escherichia coli ATCC 25922 MIC [4]: 2 mg/L | Acinetobacter baumannii 872842 MIC [5]: 0.5 mg/L | Pseudomonas aeruginosa ATCC 27853 MIC [6]: 0.5 mg/L | Acinetobacter baumannii DSM 30008 MIC [7]: 1 mg/L

CC(C)C[C@@H]1NC(=O)[C@@H](CC(C)C)NC(=O)[C@H](CCN)NC(=O)[C@@H](NC(=O)[C@H](CCN)NC(=O)[C@@H](NC(=O)[C@H](CCN)NC(=O)CC[C@@H]2NC(=O)[C@H](CCN)NC(=O)[C@H](Cc3ccc(O)cc3)NC(=O)[C@H]([C@@H](C)O)NC(=O)[C@H](CC(C)C)NC(=O)[C@@H]3CCCN3C(=O)[C@H]3CCCN3C(=O)[C@H](CO)NC(=O)[C@H]([C@@H](C)O)NC(=O)[C@H](C(C)C)NC(=O)[C@H](CCN)NC(=O)[C@H](Cc3c[nH]c4ccccc34)NC(=O)[C@H](CCN)NC(=O)[C@@H](CCN)NC2=O)[C@@H](C)O)CCNC(=O)[C@H]([C@@H](C)O)NC(=O)[C@H](CCN)NC(=O)[C@H](CCN)NC1=O [Ex. 91] (I: cyclo(LTY[Dab]E[dDab][Dab]W[Dab]VTS[dP]P) / II: [Dab]T[Dab][Dab][Dab][dL]L[Dab][Dab]T; amide I:5-II:N; lactam II:4-II:C)
Hemolysis at 100 μg/mL [1]; 100: 1% | Klebsiella pneumoniae 968733 MIC [2]: 1 mg/L | Escherichia coli 926415 MIC (Escherichia coli 926415): 0.5 mg/L | Klebsiella pneumoniae SSI #3010 MIC [3]: 0.125 mg/L | Escherichia coli ATCC 25922 MIC [4]: 0.125 mg/L | Acinetobacter baumannii 872842 MIC [5]: 0.5 mg/L | Pseudomonas aeruginosa ATCC 27853 MIC [6]: 0.5 mg/L | Acinetobacter baumannii DSM 30008 MIC [7]: 0.25 mg/L

CC(=O)N[C@@H](Cc1c[nH]c2ccccc12)C(=O)N[C@H]1CSSC[C@@H](C(=O)N[C@@H](CCN)C(=O)N[C@@H](CCN)C(=O)N[C@@H](CCN)C(=O)N[C@H]2CCNC(=O)[C@H]([C@@H](C)O)NC(=O)[C@H](CCN)NC(=O)[C@H](CCN)NC(=O)[C@H](CC(C)C)NC(=O)[C@@H](Cc3ccccc3)NC(=O)[C@H](CCN)NC2=O)NC(=O)[C@H](Cc2ccc(O)cc2)NC(=O)[C@H]([C@@H](C)O)NC(=O)[C@H](CC(C)C)NC(=O)[C@H](CCCNC(=N)N)NC(=O)[C@H]2CCCN2C(=O)[C@H](C(C)C)NC(=O)[C@H]([C@@H](C)O)NC(=O)[C@H](C(C)C)NC1=O [Ex. 115] (Ac-WCVTV[dP]RLTYC[Dab][Dab][Dab][Dab][Dab][dF]L[Dab][Dab]T; disulfide 2-11; lactam 15-C)
Hemolysis at 100 μg/mL ([1]; 100 μg/mL): 1% | Klebsiella pneumoniae 968733 MIC [2]: 1 mg/L | Escherichia coli 926415 MIC (Escherichia coli 926415): 0.5 mg/L | Klebsiella pneumoniae SSI #3010 MIC [3]: 0.5 mg/L | Escherichia coli ATCC 25922 MIC [4]: 0.5 mg/L | Acinetobacter baumannii 872842 MIC [5]: 0.5 mg/L | Pseudomonas aeruginosa ATCC 27853 MIC [6]: 0.5 mg/L | Acinetobacter baumannii DSM 30008 MIC [7]: 0.5 mg/L

CCCC[C@@H]1NC(=O)[C@@H]2CCCN2C(=O)[C@H]2CCCN2C(=O)[C@H](CO)NC(=O)[C@H](C)NC(=O)[C@H](C(C)(C)C)NC(=O)[C@@H](NC(=O)[C@H](Cc2c[nH]c3ccccc23)NC(C)=O)CSSC[C@@H](C(=O)N[C@@H](CCCN)C(=O)N[C@@H](CCN)C(=O)N[C@H]2CCNC(=O)[C@H]([C@@H](C)O)NC(=O)[C@H](CCN)NC(=O)[C@H](CCN)NC(=O)[C@H](CC(C)C)NC(=O)[C@@H](Cc3ccccc3)NC(=O)[C@H](CCN)NC2=O)NC(=O)[C@H](Cc2ccc(O)cc2)NC(=O)[C@H](CO)NC1=O [Ex. 48] (Ac-WC[Tle]AS[dP]P[Nle]SYC[Orn][Dab][Dab][Dab][dF]L[Dab][Dab]T; disulfide 2-11; lactam 14-C)
Hemolysis at 100 μg/mL ([1]; 100 μg/mL): 2% | Klebsiella pneumoniae 968733 MIC [2]: 1 mg/L | Escherichia coli 926415 MIC (Escherichia coli 926415): 0.25 mg/L | Klebsiella pneumoniae SSI #3010 MIC [3]: 0.25 mg/L | Escherichia coli ATCC 25922 MIC [4]: 0.125 mg/L | Acinetobacter baumannii 872842 MIC [5]: 0.5 mg/L | Pseudomonas aeruginosa ATCC 27853 MIC [6]: 1 mg/L | Acinetobacter baumannii DSM 30008 MIC [7]: 0.5 mg/L

CC(C)C[C@@H]1NC(=O)[C@H](CCCNC(=N)N)NC(=O)[C@@H](CCN)NC(=O)[C@H](C(C)C)NC(=O)[C@@H](NC(=O)[C@H](Cc2ccc(O)cc2)NC(=O)[C@H](CO)NC(=O)[C@@H](N)Cc2c[nH]c3ccccc23)CSSC[C@@H](C(=O)N[C@@H](Cc2ccc(O)cc2)C(=O)N[C@@H](CC(N)=O)C(=O)N(C)CC(=O)N[C@@H](CCN)C(=O)N[C@H](C(=O)N[C@@H](CCN)C(=O)N[C@H]2CCNC(=O)[C@H]([C@@H](C)O)NC(=O)[C@H](CCN)NC(=O)[C@H](CCN)NC(=O)[C@H](CC(C)C)NC(=O)[C@@H](CC(C)C)NC(=O)[C@H](CCN)NC2=O)[C@@H](C)O)NC1=O [Ex. 169] (H-WSYCV[dDab]RLCYN[Sar][Dab]T[Dab][Dab][Dab][dL]L[Dab][Dab]T; disulfide 4-9; lactam 16-C)
Hemolysis at 100 μg/mL ([1]; 100 μg/mL): 1% | Klebsiella pneumoniae 968733 MIC [2]: 2 mg/L | Escherichia coli 926415 MIC (Escherichia coli 926415): 0.5 mg/L | Klebsiella pneumoniae SSI #3010 MIC [3]: 0.25 mg/L | Escherichia coli ATCC 25922 MIC [4]: 0.5 mg/L | Acinetobacter baumannii 872842 MIC [5]: 1 mg/L | Pseudomonas aeruginosa ATCC 27853 MIC [6]: 1 mg/L | Acinetobacter baumannii DSM 30008 MIC [7]: 1 mg/L

CCCC[C@@H]1NC(=O)[C@@H]2CCCN2C(=O)[C@H]2CCCN2C(=O)[C@H](CO)NC(=O)[C@H](CO)NC(=O)[C@H](C(C)(C)C)NC(=O)[C@@H](NC(=O)[C@@H](N)Cc2c[nH]c3ccccc23)CSSC[C@@H](C(=O)N[C@@H](CCCN)C(=O)N[C@H](C)C(=O)N[C@H](CCN)C(=O)N[C@H]2CCNC(=O)[C@H]([C@@H](C)O)NC(=O)[C@H](CCN)NC(=O)[C@H](CCN)NC(=O)[C@H](CC(C)C)NC(=O)[C@@H](Cc3ccccc3)NC(=O)[C@H](CCN)NC2=O)NC(=O)[C@H](Cc2ccc(O)cc2)NC(=O)[C@H](CO)NC1=O [Ex. 104] (H-WC[Tle]SS[dP]P[Nle]SYC[Orn][dA][dDab][Dab][Dab][dF]L[Dab][Dab]T; disulfide 2-11; lactam 15-C)
Hemolysis at 100 μg/mL ([1]; 100 μg/mL): 3% | Klebsiella pneumoniae 968733 MIC [2]: 1 mg/L | Escherichia coli 926415 MIC (Escherichia coli 926415): 0.25 mg/L | Klebsiella pneumoniae SSI #3010 MIC [3]: 0.5 mg/L | Escherichia coli ATCC 25922 MIC [4]: 0.25 mg/L | Acinetobacter baumannii 872842 MIC [5]: 0.25 mg/L | Pseudomonas aeruginosa ATCC 27853 MIC [6]: 1 mg/L | Acinetobacter baumannii DSM 30008 MIC [7]: 0.5 mg/L
